Data on seven compounds can be found in patent EP0515927A2, “Pradimicin antibiotics” (priority 1991, dated 1992).

Values after ≈ are worked out from the molar mass of the structure shown. Like-named read-outs stand apart in the source and are kept apart here. Some results are limits rather than exact numbers.

One data set deals with influenza virus A. Nature of the data set: In vitro antiviral activity, influenza virus A-MDCK cell system, dye-uptake assay (inhibition of viral cytopathic effect). Format: cell-based. The settings on record: 50% inhibition of cytopathic effect, 72 hours.
In another data set the test system is C. albicans A9540. Nature of the data set: In vivo efficacy against C. albicans A9540 systemic infection in mice. More on the design: species or system male ICR mice. The settings on record: single i.v. injection immediately after i.v. challenge; survivors on 20th day. On the procedure:
The in vivo efficacy of pradimicins was evaluated against C. albicans A9540 systemic infection in male ICR mice (20-24 g body weight). The pathogen was cultured for 18 hours at 28°C in YGP medium (yeast extract 0.2%, glucose 1.5%, peptone 0.5%, K2HP04 0.05% and MgS04 0.05%) and resuspended in saline. Mice were challenged intravenously with 10 times lethal dose of the pathogen. Immediately after the fungal challenge, groups of 5 mice received a single intravenous injection of pradimicin S or FS or N-methyl pradimicin S at various dose levels. Amphotericin B and Fluconazol were used as positive controls. The median protective dose (PDso) was determined from the number of surviving mice recorded on the 20th day after the fungal infection.

A further data set deals with Vero cells. The settings on record: HSV-Vero cell, (TD50: 50% cytotoxicity without virus).
The subject of the next data set is various fungal organisms. Nature of the data set: In vitro antifungal activity, agar dilution method, Yeast Morphology agar with 1/15 M phosphate buffer (pH 7.0). The settings on record: summary in words (Table 7 is an image). The data set is classed as cell-based. How it is done:
The in vitro antifungal activity of pradimicins was determined by a conventional agar dilution method using Yeast Morphology agar containing 1/15 M phosphate buffer (pH 7.0).

Data set [1] concerns herpes simplex virus type I (HSV-1). The settings on record: 72 h.
Data set [2] concerns Madin Darby canine kidney (MDCK) cell. The settings on record: Influenza virus-MDCK cell, (TD50: 50% cytotoxicity without virus).
The nature of data set [3]: Acute toxicity in mice after single i.v. administration. The data set is classed as in vivo. On the procedure: The acute toxicity of pradimicins S and FS and N-methyl pradimicin S was determined in mice after single administration (i.v.).
Where [4] appears, read: mouse, in vivo, iv, read-out: LD50.

Turning to `CN[C@@H]1[C@H](O[C@@H]2O[C@H](CO)[C@@H](O)[C@H](OS(=O)(=O)O)[C@H]2O)[C@@H](O)[C@H](O[C@H]2c3cc(C)c(C(=O)N[C@H](CO)C(=O)O)c(O)c3-c3c(cc4c(c3O)C(=O)c3cc(OC)cc(O)c3C4=O)[C@@H]2O)O[C@@H]1C` [Pradimicin FS, pradimicin FS], the “ID50” value in the data set on influenza virus A was 82 µg/mL (≈ 84.8 µM); in the data set on Vero cells, greater than 100 µg/mL; in data set [1] it was greater than 100 µg/mL; in data set [2], greater than 100 µg/mL. For the same compound, the “PD50 mg/kg (i.v.)” value in the data set with C. albicans A9540 turned out to be 18 mg/kg. In the data set with various fungal organisms, the “in vitro antifungal activity” value was “activity against various fungal organisms”. The LD50 in data set [3] (setting [4]) was 210 mg/kg.
Consider `NC(=O)c1ncn([C@@H]2O[C@H](CO)[C@@H](O)[C@H]2O)n1` [Ribavirin, reference compound], for which the “ID50” value with influenza virus A was determined as 9.5 µg/mL (≈ 38.9 µM).
As for `OC(Cn1cncn1)(Cn1cncn1)c1ccc(F)cc1F` [Fluconazol, reference compound], in the data set on C. albicans A9540, the “PD50 mg/kg (i.v.)” value is on record as greater than 50 mg/kg.
As for `Nc1nc2c(ncn2COCCO)c(=O)[nH]1` [Acyclovir, reference compound], the “ID50” value in the data set on Vero cells is greater than 100 µg/mL; in data set [1], 0.09 µg/mL (≈ 0.4 µM).
As to `C[C@@H]1[C@H](O)[C@@H](C)/C=C/C=C/C=C/C=C/C=C/C=C/C=C/[C@H](O[C@@H]2O[C@H](C)[C@@H](O)[C@H](N)[C@@H]2O)C[C@@H]2O[C@](O)(C[C@@H](O)C[C@@H](O)[C@H](O)CC[C@@H](O)C[C@@H](O)CC(=O)O[C@H]1C)C[C@H](O)[C@H]2C(=O)O` [Amphotericin B, reference compound], the “PD50 mg/kg (i.v.)” value in the data set on C. albicans A9540 is 0.31 mg/kg.
With N-methyl pradimicin S [BMY-29273], the “PD50 mg/kg (i.v.)” value in the data set on C. albicans A9540 stood at 47 mg/kg. Also, the “in vitro antifungal activity” value with various fungal organisms was “activity against various fungal organisms”. In addition, the LD50 in data set [3] was no less than 424 mg/kg.
As to `CN[C@@H]1[C@H](O[C@@H]2O[C@H](CO)[C@@H](O)[C@H](OS(=O)(=O)O)[C@H]2O)[C@@H](O)[C@H](O[C@H]2c3cc(C)c(C(=O)N[C@H](C)C(=O)O)c(O)c3-c3c(cc4c(c3O)C(=O)c3cc(OC)cc(O)c3C4=O)[C@@H]2O)O[C@@H]1C` [Pradimicin S, pradimicin S], the “ID50” value in the data set on influenza virus A was 22 µg/mL (≈ 23.1 µM); in the data set on Vero cells, greater than 100 µg/mL; in data set [1], greater than 100 µg/mL; in data set [2], greater than 100 µg/mL. Also, the “PD50 mg/kg (i.v.)” value in the data set with C. albicans A9540 amounted to 35 mg/kg. For the same compound, the “in vitro antifungal activity” value with various fungal organisms is reported as “activity against various fungal organisms”. Besides, the LD50 in data set [3] (setting [4]) stood at 244 mg/kg.
